In brackets after ≈: the same amount, converted by molar mass. Where two headings read alike, the source gives them in different places.
How the values were obtained:
[1] = tested on: human umbilical vein endothelial cells (HUVEC); assay: MTT cell viability assay, HUVEC; type: cell-based; conditions: 24 h
Protocol: Human U373 glioma, MCF7 breast cancer, A549 lung cancer and PC-3 prostate cancer cells were grown in Dulbecco’s Modified Eagle Medium (DMEM), supplemented with 10% foetal bovine serum, 2 mM glutamine, 100 U/mL penicillin/streptomycin, at 37 °C in a humidified atmosphere containing 5% CO2 (logarithmic growth phase, routine passages every 3 days). The human breast epithelial cell line MCF10 was cultured in DMEM/F12 Ham’s Mixture supplemented with 5% horse serum, epithelial growth factor 20 ng/mL, insulin 10 μg/mL, hydrocortisone 0.5 mg/mL, cholera toxin 100 ng/mL, and 100 U/mL penicillin/streptomycin. […]
(§1) U373, MCF7, A549, PC-3, HUVEC, and MCF10 cell viability was determined by MTT assay using published protocols. MTT absorbance was quantified spectrophotometrically using a Glomax Multi Detection System microplate reader (Promega, Milano, Italy).
Statistical significance of raw data between the groups in each experiment was evaluated using unpaired Student’s t-test (single comparisons) or one-way ANOVA followed by the Newman-Keuls post-test (multiple comparisons). The IC50 and Emax concentration were determined by non-linear regression curve analysis of the concentration-effect responses. […] The results were expressed as means ± standard error of mean (SEM) of the indicated n values.

MCF7 cells [2] = assay: Confocal co-localisation of cytochrome c with COX IV, MCF7 cells; type: cell-based, human; conditions: MCF7, 3 h; gibbilimbol B/eriopodol A 30 µg/mL, erioquinol 10 µg/mL
Protocol: (§2) Using published protocols, MCF7 or U373 cells cultured in 120-mm coverslips were fixed in 4% paraformaldehyde in 0.1 M PB, pH 7.4, for 10 min. Cells were pre-incubated for 1 h min with 5% of normal goat serum (Life Technologies, Monza, Italy) in 0.1 M PB (pH 7.4) containing 0.1% Triton X-100, before overnight incubation with the rabbit monoclonal anti-cleaved caspase 7 (Cell Signaling Technology, Danvers, MA, USA). In double-label immunofluorescence experiments, the mouse monoclonal anti-cytochrome c primary antibody (Cell Signaling Technology) was used in conjunction with the rabbit monoclonal primary antibody directed to COX IV (Cell Signaling Technology). For fluorescence detection, coverslips were stained with the appropriate Alexa Fluor secondary antibodies (Life Technologies) and mounted on glass slides in a ProLong Gold Antifade Mountant (Life Technologies). DAPI and/or fluorescein phalloidin (cytoskeleton detection) staining was also used. Cells were analysed with a DMI4000 B automated inverted microscope equipped with a DCF310 digital camera (Leica Microsystems, Wetzlar, Germany). When indicated, confocal imaging was performed with a TCS SP8 System (Leica Microsystems). Image acquisitions were controlled by the Leica Application Suite X.

MCF7 cells [3] = assay: TUNEL assay; type: cell-based, human; conditions: MCF7, 12 h; gibbilimbol B/eriopodol A 30 µg/mL, erioquinol 10 µg/mL
Protocol: Using published protocols, MCF7 or U373 cells cultured in 120-mm coverslips were fixed in 4% paraformaldehyde in 0.1 M phosphate buffer (PB), pH 7.4, for 10 min. The TUNEL method (DeadEnd Fluorometric TUNEL System, Promega) was used to assay apoptosis, according to the manufacturer’s protocol. DAPI (nuclei detection) staining was also performed.

U373 cells [4] = assay: Confocal co-localisation of cytochrome c with COX IV, U373 cells; type: cell-based, human; conditions: U373, 3 h; gibbilimbol B/eriopodol A 30 µg/mL, erioquinol 10 µg/mL
Protocol: as §2

MCF7 cells [5] = assay: MTT cell viability assay, MCF7 cells; type: cell-based, human; conditions: for IC50: Homo sapiens, MTT; for loss of cell viability (MTT) with simultaneous 50 µM Z-VAD-(OMe)-FMK: MCF7, 6 h, gibbilimbol B/eriopodol A 30 µg/mL, erioquinol 10 µg/mL
Protocol: (§3) Human U373 glioma, MCF7 breast cancer, A549 lung cancer and PC-3 prostate cancer cells were grown in Dulbecco’s Modified Eagle Medium (DMEM), supplemented with 10% foetal bovine serum, 2 mM glutamine, 100 U/mL penicillin/streptomycin, at 37 °C in a humidified atmosphere containing 5% CO2 (logarithmic growth phase, routine passages every 3 days). The human breast epithelial cell line MCF10 was cultured in DMEM/F12 Ham’s Mixture supplemented with 5% horse serum, epithelial growth factor 20 ng/mL, insulin 10 μg/mL, hydrocortisone 0.5 mg/mL, cholera toxin 100 ng/mL, and 100 U/mL penicillin/streptomycin. HUVEC were grown in EGM-2 Endothelial Cell Growth Medium-2 BulletKit (Lonza, Basel, Switzerland), according to the manufacturer’s protocol.
as §1
(§4) Statistical significance of raw data between the groups in each experiment was evaluated using unpaired Student’s t-test (single comparisons) or one-way ANOVA followed by the Newman-Keuls post-test (multiple comparisons). The IC50 and Emax concentration were determined by non-linear regression curve analysis of the concentration-effect responses. Potency values among concentration-response curves were compared with the F-test. Data belonging from different experiments were represented and averaged in the same graph. The GraphPad Prism software package (GraphPad Software, San Diego, CA, USA) was used. The results were expressed as means ± standard error of mean (SEM) of the indicated n values.

U373 cells [6] = assay: ROS detection with DCFH-DA, U373 cells; type: cell-based, human; conditions: U373, 6 h; gibbilimbol B/eriopodol A 30 µg/mL, erioquinol 10 µg/mL
Protocol: (§5) MCF7 or U373 cells cultured in 120-mm coverslips were exposed to 30 µM DCFH-DA (0.1 M PB, pH 7.4) and fixed in 4% paraformaldehyde for 20 min. For fluorescence detection, coverslips were mounted on glass slides and observed with a laser-scanning confocal microscope (TCS SP8 System and Application suite X, Leica Microsystems). DAPI and fluorescein phalloidin (nuclei and cytoskeleton detection, respectively) staining was also used.

MCF7 cells [7] = assay: TMRM mitochondrial membrane potential analysis, MCF7 cells; type: cell-based, human; conditions: gibbilimbol B/eriopodol A 30 µg/mL, erioquinol 10 µg/mL; for TMRM fluorescence (mitochondria membrane potential): MCF7, increasing time; for time to full response of TMRM fluorescence decrease: MCF7
Protocol: Using published protocols, mitochondria of MCF7 and U373 cells were labeled using TMRM, a voltage-sensitive cationic lipophilic dye, partitioning and accumulating in the mitochondrial matrix based upon the Nernst equation. After treatments, cells were trypsinised, counted and incubated with 100 nM TMRM for 30 min at 37 °C. Fluorescence was measured by using a Glomax Multi Detection System microplate reader (Promega), excitation wavelength: 525 nm; emission wavelength: 580–640 nm). After background subtraction, the data were normalised on cell number.

MCF7 cells [8] = assay: ROS detection with DCFH-DA, MCF7 cells; type: cell-based, human; conditions: MCF7, 6 h; gibbilimbol B/eriopodol A 30 µg/mL, erioquinol 10 µg/mL
Protocol: as §5

U373 cells [9] = assay: MTT cell viability assay, U373 cells; type: cell-based, human; conditions: for IC50: Homo sapiens, U373 MG, MTT, 24 h, read-out: IC50 (μg/mL) U373 Cells
Protocol: as §3, §1, §4

MCF7 cells [10] = assay: Bright field microscopy and DAPI staining of cell morphology; type: cell-based, human; conditions: MCF7, 6 h; for cell morphology, bright field microscopy: increasing concentrations; for nuclei, DAPI staining: gibbilimbol B/eriopodol A 30 µg/mL, erioquinol 10 µg/mL
Protocol: as §2

[11] = MCF7, 24 h (Table 1), read-out: IC50 (μg/mL) MCF7 Cells
[12] = MCF7, 6 h exposure (time-response), read-out: IC50
[13] = MCF7, 12 h exposure (time-response), read-out: IC50

Structure (SMILES) | IC50 [1] | subcellular location of cytochrome c (MCF7 cells [2]) | TUNEL staining (DNA fragmentation) (MCF7 cells [3]) | subcellular location of cytochrome c (U373 cells [4]) | IC50 (MCF7 cells [5]; [11]) | IC50 (MCF7 cells [5]; [12]) | IC50 (MCF7 cells [5]; [13]) | IC50 (MCF7 cells [5]; MCF7, 24 h exposure (time-response), read-out: IC50) | loss of cell viability (MTT) with simultaneous 50 µM Z-VAD-(OMe)-FMK (MCF7 cells [5]) | concentration-dependent inhibition of MTT absorbance with 50 µM necrostatin-1 and 10 µM ferrostatin-1 (MCF7 cells [5]; MCF7, 24 h, 2 h pre-treatment with inhibitors) | ROS (DCFH-DA staining) (U373 cells [6]) | TMRM fluorescence (mitochondria membrane potential) (MCF7 cells [7]) | time to full response of TMRM fluorescence decrease (MCF7 cells [7]) | ROS (DCFH-DA staining) (MCF7 cells [8]) | IC50 (U373 cells [9]) | concentration-dependent inhibition of MTT absorbance with 50 µM necrostatin-1 and 10 µM ferrostatin-1 (U373 cells [9]; U373, 24 h, 2 h pre-treatment with inhibitors) | cell morphology, bright field microscopy (MCF7 cells [10]) | nuclei, DAPI staining (MCF7 cells [10])
CCCCCC/C=C\CCC1(O)C=CC(=O)C=C1 [Erioquinol, (Z)-4-(dec-3′-enyl)-4-hydroxycyclohexa-2,5-dien-1-one] | 0.36 mg/L (≈ 1.45 µM) | release of cytochrome c | DNA fragmented cells were few | release of cytochrome c | 2.63 µg/mL (≈ 10.6 µM) | 14.7 µg/mL (≈ 59.3 µM) | 4.25 µg/mL (≈ 17.1 µM) | 1.93 µg/mL (≈ 7.77 µM) | did not affect | did not change | marked accumulation of ROS | comparable decrease in TMRM fluorescence vs. control | ≤ 1 h | marked accumulation of ROS | 1.78 µg/mL (≈ 7.17 µM) | did not change | translucent cytoplasm and no overall nuclei condensation | appearence of multinucleated cells
CCCCCC/C=C/CCc1ccc(O)cc1 [Gibbilimbol B, (E)-4-(dec-3′-enyl)phenol] | 11.5 mg/L (≈ 49.4 µM) | release of cytochrome c | inter-nucleosomal degradation of genomic DNA typical of late apoptotic cells | release of cytochrome c | 16.4 µg/mL (≈ 70.8 µM) | 20.3 µg/mL (≈ 87.4 µM) | 27.4 µg/mL (≈ 118 µM) | – | significantly inhibited | – | absent | comparable decrease in TMRM fluorescence vs. control | ≤ 1 h | absent | 16.8 µg/mL (≈ 72.3 µM) | – | morphological hallmarks of apoptosis | nuclei of cells undergoing apoptosis

— PMC6770071, “XIAP as a Target of New Small Organic Natural Molecules Inducing Human Cancer Cell Death” (Cancers, 2019)
